In patent US20220096485A1, “FUNCTIONALIZED PYRANO[2,3-D]PYRIMIDIN-7-ONE DERIVATIVES AND METHODS FOR THEIR PREPARATION AND USE” (The Texas A&M University System, priority 2016, published 2022):

target: Abelson kinase 2 (ABL2) (Homo sapiens, UniProt P42684); test: Eurofins Arg (ABL2) Human TK Kinase Binding Assay
Sequence (P42684 whole entry): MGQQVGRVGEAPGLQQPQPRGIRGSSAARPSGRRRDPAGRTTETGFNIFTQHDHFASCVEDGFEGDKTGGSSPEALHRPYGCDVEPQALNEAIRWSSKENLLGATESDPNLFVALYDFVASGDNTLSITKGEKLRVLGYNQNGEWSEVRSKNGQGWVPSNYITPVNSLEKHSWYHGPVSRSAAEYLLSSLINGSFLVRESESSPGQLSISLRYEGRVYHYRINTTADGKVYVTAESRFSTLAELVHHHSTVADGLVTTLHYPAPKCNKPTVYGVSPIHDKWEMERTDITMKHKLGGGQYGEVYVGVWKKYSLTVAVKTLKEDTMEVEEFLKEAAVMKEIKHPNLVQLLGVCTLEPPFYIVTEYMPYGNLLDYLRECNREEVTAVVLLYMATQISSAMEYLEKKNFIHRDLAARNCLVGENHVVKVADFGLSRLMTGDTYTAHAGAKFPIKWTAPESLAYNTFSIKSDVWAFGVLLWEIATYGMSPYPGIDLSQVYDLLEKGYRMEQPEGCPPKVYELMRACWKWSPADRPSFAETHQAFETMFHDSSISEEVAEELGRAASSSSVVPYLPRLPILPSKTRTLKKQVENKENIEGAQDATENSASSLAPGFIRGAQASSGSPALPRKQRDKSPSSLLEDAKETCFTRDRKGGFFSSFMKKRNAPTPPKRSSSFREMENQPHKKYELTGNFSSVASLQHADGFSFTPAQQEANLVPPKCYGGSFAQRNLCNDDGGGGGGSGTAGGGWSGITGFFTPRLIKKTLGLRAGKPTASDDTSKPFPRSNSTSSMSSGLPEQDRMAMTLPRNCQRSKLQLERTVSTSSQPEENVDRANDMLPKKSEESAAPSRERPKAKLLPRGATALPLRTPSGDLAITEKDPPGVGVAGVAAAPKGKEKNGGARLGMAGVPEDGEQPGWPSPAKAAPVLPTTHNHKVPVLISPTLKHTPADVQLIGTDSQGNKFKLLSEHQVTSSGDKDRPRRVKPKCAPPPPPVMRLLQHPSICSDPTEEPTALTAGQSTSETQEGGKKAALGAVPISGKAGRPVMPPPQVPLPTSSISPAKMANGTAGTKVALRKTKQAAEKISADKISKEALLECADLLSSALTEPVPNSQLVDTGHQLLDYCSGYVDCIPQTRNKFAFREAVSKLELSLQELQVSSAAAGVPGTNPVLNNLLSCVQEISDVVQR

Row | SMILES | Kd [nM]
1 | Cc1cccc(C)c1-c1cc2cnc(Nc3cccc(N)c3)nc2oc1=O [Compound 19a, 2-(3-Aminophenylamino)-6-(2,6-dimethylphenyl)-7H-pyrano[2,3-d]pyrimidine-7-one] | 1.3
2 | CSc1cccc(Nc2ncc3cc(-c4c(Cl)cccc4Cl)c(=O)oc3n2)c1 [Compound 12b, 2-(3-(Methylthio)phenylamino)-6-(2,6-dichlorophenyl)-7H-pyrano[2,3-d]pyrimidin-7-one] | 3.8
3 | CC(=O)Nc1cccc(Nc2ncc3cc(-c4c(C)cccc4C)c(=O)oc3n2)c1 [Compound 19b, N-(3-(6-(2,6-Dimethylphenyl)-7-oxo-7H-pyrano[2,3-d]pyrimidine-2-ylamino)phenyl)-acetamide] | 1.3
4 | Cc1cc(Nc2ncc3cc(-c4c(Cl)cccc4Cl)c(=O)oc3n2)ccc1F [Compound 12a, 2-(4-Fluoro-3-methylphenylamino)-6-(2,6-dichlorophenyl)-7H-pyrano[2,3-d]pyrimidin-7-one] | 3.9
5 | CN(C)c1ccc(Nc2ncc3cc(-c4c(Cl)cccc4Cl)c(=O)oc3n2)cc1 [Compound 12f, 6-(2,6-Dichlorophenyl)-2-(4-(dimethylamino)phenylamino)-7H-pyrano[2,3-d]pyrimidine-7-one] | 6.9
6 | Nc1cccc(Nc2ncc3cc(-c4ccccc4)c(=O)oc3n2)c1 [Compound 19c, 2-(3-Aminophenylamino)-6-phenyl-7H-pyrano[2,3-d]pyrimidin-7-one] | 130
7 | N#Cc1cccc(Nc2ncc3cc(-c4c(Cl)cccc4Cl)c(=O)oc3n2)c1 [Compound 12d, 3-(6-(2,6-Dichlorophenyl)-7-oxo-7H-pyrano[2,3-d]pyrimidin-2-ylamino)benzonitrile] | 4.5

Next, values leading:

Row | Kd [nM] | SMILES
8 | 1.1 | Nc1cccc(Nc2ncc3cc(-c4c(Cl)cccc4Cl)c(=O)oc3n2)c1 [Compound 12c, 2-(3-Aminophenylamino)-6-(2,6-dichlorophenyl)-7H-pyrano[2,3-d]pyrimidin-7-one]
9 | 1.1 | CC(=O)Nc1cccc(Nc2ncc3cc(-c4c(Cl)cccc4Cl)c(=O)oc3n2)c1 [Compound 12g, N-(3-(6-(2,6-Dichlorophenyl)-7-oxo-7H-pyrano[2,3-d]pyrimidine-2-ylamino)-phenyl)-acetamide]
10 | 1.3 | COc1cccc(Nc2ncc3cc(-c4c(Cl)cccc4Cl)c(=O)oc3n2)c1 [Compound 12e, 6-(2,6-Dichlorophenyl)-2-(3-methoxyphenylamino)-7H-pyrano[2,3-d]pyrimidin-7-one]
